Results reported in patent US20250084088A1, “ANTIVIRAL COMPOUNDS AND METHODS OF MAKING AND USING THE SAME” (Gilead Sciences, Inc., priority 2023, published 2025).

Tests used:
[1] = MT4 CC50 cytotoxicity in uninfected cells (CC50-MT4-384), Example G; format: cell-based; conditions: human; uninfected MT-4 cells, 4-5 days, Cell-Titer Glo
Method: Example G. HEp-2 and MT4 CC50 Cytotoxicity of the compounds was determined in uninfected cells using the cell viability reagent in a similar fashion as described before for other cell types ([…] et al., ANTIMICROB AGENTS CHEMOTHER. 2008, 52(2):655-65). HEp-2 (1.5×10^3 cells/well) and MT-4 (2×10^3 cells/well) cells were plated in 384-well plates and incubated with the appropriate medium containing 3-fold serially diluted compound ranging from 15 nM to 100,000 nM. Cells were cultured for 4-5 days at 37° C. Following the incubation, the cells were allowed to equilibrate to 25° C., and cell viability was determined by adding Cell-Titer Glo viability reagent. The mixture was incubated for 10 min, and the luminescence signal was quantified using an Envision plate reader. Untreated cell and cells treated at 2 μM puromycin (Sigma, St. Louis, MO) serve as 100% and 0% cell viability control, respectively. The percent of cell viability was calculated for each tested compound concentration relative to the 0% and 100% controls and the CC50 value was determined by non-linear regression as a compound concentration reducing the cell viability by 50%.

RSV strain A2 = test: RSV Cellomics assay for RSV A2 antiviral activity (EC50-RSV-Hep2-96-Cellomics), Example Z; format: cell-based; conditions: human respiratory syncytial virus, HEp-2, 72 h; Hep2 cells infected with RSV strain A2, MOI=0.05, 3 days, RSV F protein immunofluorescence
Method: Example Z: RSV Cellomics Assay for RSV A2 Antiviral Activity (EC50-RSV-Hep2-96-Cellomics) 8×10^3 Hep2 cells are seeded into 96 well plates in 100 μL of media (DMEM supplemented with GlutaMAX, 10% FBS and Pen/Strep) and briefly spun at 50×g for 1 minute to attach cells. Cells were further allowed to attach with overnight incubation at 37° C.+5% CO2. The following day, the media was aspirated and 100 μL of fresh DMEM media containing 2% FBS was added. A three-fold dilution series of compounds of interest are then added to the plate using the Tecan D300e dispenser and the plate is normalized to the well with the highest volume of DMSO. The cells are next infected by adding 100 μL of media containing RSV strain A2 at an MOI=0.05 and the plates incubated for 3 days at 37° C.+5% CO2. Following the incubation, the media is removed, and the cells are washed once with 250 μL PBS and fixed with 250 μL ice-cold 100% methanol for 10 minutes at 4 C. The methanol is then removed and the plates air dried for 5 minutes and then washed once with 250 μL PBS to remove any residual methanol. The wells are then blocked 60 μL/well of BlockAid (B10710, Thermo-Fisher) for 1 hour at RT on rocker at which point the blocking buffer is carefully aspirated. Primary antibody against the RSV F protein (MAB 858-1) is then diluted 1:2000 in SuperBlock (37515, Thermo Fisher) and 50 μL of the primary antibody solution is added to each well. The plates are incubated at room temperature for 1 hour with gentle agitation and then washed with 250 μL of PBS-Tween 3 times. A goat anti-mouse AlexaFluor 647 conjugated secondary antibody (Sigma, A21235) is then diluted 1:2000 and Hoescht 33342 (H3570) at 1:1000 in SuperBlock and 50 μL added to the wells for 1 hour at 37° C. After incubation the antibody solution is aspirated, and the wells are then washed with 250 μL of PBS-Tween 3 times. To keep cells from drying out, 100 μL of PBS is added to each well and the plates are sealed with black plate seal. Fluorescence at the 647 nm wavelength is measured using a Cellomics CellInsight CX7 machine. Compound activity is determined as a percentage of the % positive cells (or average intensity) compared to DMSO treated RSV infected well controls following subtraction of uninfected controls. The EC50 values are then calculated using nonlinear regression analysis in GraphPad Prism.

Row | Structure (SMILES) | CC50 [1] | EC50 (RSV strain A2)
1 | COC(=O)OC[C@@]1(C#N)O[C@@H](c2ccc3c(N)ncnn23)[C@H](OC(C)=O)[C@@H]1OC(C)=O [Compound 4, (2R,3S,4S,5S)-5-(4-aminopyrrolo[2,1-f][1,2,4]triazin-7-yl)-2-cyano-2-(((methoxycarbonyl)oxy)methyl)tetrahydrofuran-3,4-diyl diacetate] | > 50000 nM | 54000 nM
2 | CC(=O)O[C@H]1[C@H](c2ccc3c(N)ncnn23)O[C@](C#N)(COC(=O)OC(C)OC(=O)[C@H](C(C)C)N(C)C)[C@H]1OC(C)=O (stereo partly drawn) [Compound 7, (2R,3S,4S,5S)-5-(4-aminopyrrolo[2,1-f][1,2,4]triazin-7-yl)-2-cyano-2-((8S)-8-isopropyl-5,9-dimethyl-3,7-dioxo-2,4,6-trioxa-9-azadecyl)tetrahydrofuran-3,4-diyl diacetate] | > 50000 nM | 
3 | CCOC(=O)OC[C@@]1(C#N)O[C@@H](c2ccc3c(N)ncnn23)[C@H](OC(=O)OCC)[C@@H]1OC(=O)OCC [Compound 6, (2R,3S,4S,5S)-5-(4-aminopyrrolo[2,1-f][1,2,4]triazin-7-yl)-2-cyano-2-(((ethoxycarbonyl)oxy)methyl)tetrahydrofuran-3,4-diyl diethyl bis(carbonate)] | > 50000 nM | 68600 nM
4 | N#C[C@]1(CO)O[C@@H](c2ccc3c(N)ncnn23)[C@H](O)[C@@H]1O [Compound 0, (2R,3S,4R,5S)-5-(4-aminopyrrolo[1,2-f][1,2,4]triazin-7-yl)-3,4-dihydroxy-2-(hydroxymethyl)tetrahydrofuran-2-carbonitrile, reference compound] | > 50000 nM | 9740 nM
5 | CC(=O)O[C@H]1[C@H](c2ccc3c(N)ncnn23)O[C@](C#N)(COC(=O)OCC(C)C)[C@H]1OC(C)=O [Compound 1, (2R,3S,4S,5S)-5-(4-aminopyrrolo[2,1-f][1,2,4]triazin-7-yl)-2-cyano-2-(((isobutoxycarbonyl)oxy)methyl)tetrahydrofuran-3,4-diyl diacetate] | > 50000 nM | 45900 nM
6 | CCC(=O)O[C@H]1[C@H](c2ccc3c(N)ncnn23)O[C@](C#N)(COC(=O)OCC(C)C)[C@H]1OC(=O)CC [Compound 2, (2R,3S,4S,5S)-5-(4-aminopyrrolo[2,1-f][1,2,4]triazin-7-yl)-2-cyano-2-(((isobutoxycarbonyl)oxy)methyl)tetrahydrofuran-3,4-diyl dipropionate] | > 50000 nM | 49200 nM
7 | CC(=O)O[C@H]1[C@H](c2ccc3c(N)ncnn23)O[C@](C#N)(COC(=O)OC(C)C)[C@H]1OC(C)=O [Compound 3, (2R,3S,4S,5S)-5-(4-aminopyrrolo[2,1-f][1,2,4]triazin-7-yl)-2-cyano-2-(((isopropoxycarbonyl)oxy)methyl)tetrahydrofuran-3,4-diyl diacetate] | > 50000 nM | 100000 nM
8 | CCOC(=O)OC[C@@]1(C#N)O[C@@H](c2ccc3c(N)ncnn23)[C@H](OC(C)=O)[C@@H]1OC(C)=O [Compound 5, (2R,3S,4S,5S)-5-(4-aminopyrrolo[2,1-f][1,2,4]triazin-7-yl)-2-cyano-2-(((ethoxycarbonyl)oxy)methyl)tetrahydrofuran-3,4-diyl diacetate] | > 50000 nM | 61500 nM
